As usually defined, the bioavailability is the share of a dose that reaches the circulation, judged against a reference dose that is usually intravenous. A lower bioavailability goes with little systemic uptake.

Drawing on ChEMBL document CHEMBL1129172, “Synthesis of water soluble prodrug of DMP323” (Bioorg Med Chem Lett, 1996), this text covers solubility and bioavailability for one molecule.

A short description of data set [1]: Solubility in water. The format is physicochemical. The settings on record: read-out: S.
The nature of data set [2]: Compound was evaluated for oral bioavailability in dogs; 37-38 %. In kind it is ADME, organism-based, Canis lupus familiaris. The settings on record: dog, in vivo.

Values after ≈ are worked out from the molar mass of the structure shown.

As to `O=C1N(Cc2ccc(CO)cc2)[C@H](Cc2ccccc2)[C@H](O)[C@@H](O)[C@@H](Cc2ccccc2)N1Cc1ccc(CO)cc1` [DMP-323], in data set [1], the solubility came out at 10 µg/mL (≈ 17.6 µM). This molecule also returned a bioavailability in data set [2] of 38%.
